Assay results reported in publication PMC6093650, “Antidepressive and anxiolytic effects of ostruthin, a TREK-1 channel activator” (PLoS ONE, 2018).

Tests used:
[1] = system: general locomotor activity of mice; assay: voluntary wheel running test; format: in vivo; details: 0, 2, 5, 20 mg/kg i.p., after elevated plus maze, 5 min, n = 7
Source text: Male ICR mice (n = 317 in total) aged 5 weeks and weighing 32 ± 2 g were purchased from Shimizu Laboratory Supplies (Kyoto, Japan). For the social defeat stress test, we used 28 C57BL/6J mice (5 weeks old, Shimizu Laboratory Supplies) and 30 ICR mice (7–8 weeks old, Charles River Labs Japan, Yokohama, Kanagawa, Japan). Mice were maintained for at least 1 week prior to experiments. Animals were kept in groups in plastic cages. They had free access to food and water, and were kept in a 12-h light/dark cycle (08:00–20:00). Experiments were carried out between 10:00 and 18:00 in a quiet and air-conditioned experimental room, in which mice were habituated for at least 30 min before each experiment. Animal experiments were performed in accordance with the guidelines of the Physiological Society of Japan and were approved by the Committees on Animal Experiments at Kansai Medical University and the Kurashiki University of Science and the Arts. Ostruthin was initially dissolved in DMSO at higher concentration (100 mM) and then diluted in phosphate-buffered saline (PBS). […]
Immediately after the elevated plus maze test, the same mouse was subjected to the voluntary wheel running test. The number of rotations was measured for 5 min using an activity monitoring running wheel (Muromachi Kikai, Tokyo, Japan).

[2] = biological target: T1, HERG-3 (Homo sapiens, UniProt Q9NS40); assay: whole-cell patch-clamp of HERG-3 currents in 293T cells; format: cell-based; details: 100 μM (data not shown)
T1 construct: expressed in transfected cells; host or cells: 293T (transient, calcium-phosphate transfection)
T1 sequence (Q9NS40 1-1196): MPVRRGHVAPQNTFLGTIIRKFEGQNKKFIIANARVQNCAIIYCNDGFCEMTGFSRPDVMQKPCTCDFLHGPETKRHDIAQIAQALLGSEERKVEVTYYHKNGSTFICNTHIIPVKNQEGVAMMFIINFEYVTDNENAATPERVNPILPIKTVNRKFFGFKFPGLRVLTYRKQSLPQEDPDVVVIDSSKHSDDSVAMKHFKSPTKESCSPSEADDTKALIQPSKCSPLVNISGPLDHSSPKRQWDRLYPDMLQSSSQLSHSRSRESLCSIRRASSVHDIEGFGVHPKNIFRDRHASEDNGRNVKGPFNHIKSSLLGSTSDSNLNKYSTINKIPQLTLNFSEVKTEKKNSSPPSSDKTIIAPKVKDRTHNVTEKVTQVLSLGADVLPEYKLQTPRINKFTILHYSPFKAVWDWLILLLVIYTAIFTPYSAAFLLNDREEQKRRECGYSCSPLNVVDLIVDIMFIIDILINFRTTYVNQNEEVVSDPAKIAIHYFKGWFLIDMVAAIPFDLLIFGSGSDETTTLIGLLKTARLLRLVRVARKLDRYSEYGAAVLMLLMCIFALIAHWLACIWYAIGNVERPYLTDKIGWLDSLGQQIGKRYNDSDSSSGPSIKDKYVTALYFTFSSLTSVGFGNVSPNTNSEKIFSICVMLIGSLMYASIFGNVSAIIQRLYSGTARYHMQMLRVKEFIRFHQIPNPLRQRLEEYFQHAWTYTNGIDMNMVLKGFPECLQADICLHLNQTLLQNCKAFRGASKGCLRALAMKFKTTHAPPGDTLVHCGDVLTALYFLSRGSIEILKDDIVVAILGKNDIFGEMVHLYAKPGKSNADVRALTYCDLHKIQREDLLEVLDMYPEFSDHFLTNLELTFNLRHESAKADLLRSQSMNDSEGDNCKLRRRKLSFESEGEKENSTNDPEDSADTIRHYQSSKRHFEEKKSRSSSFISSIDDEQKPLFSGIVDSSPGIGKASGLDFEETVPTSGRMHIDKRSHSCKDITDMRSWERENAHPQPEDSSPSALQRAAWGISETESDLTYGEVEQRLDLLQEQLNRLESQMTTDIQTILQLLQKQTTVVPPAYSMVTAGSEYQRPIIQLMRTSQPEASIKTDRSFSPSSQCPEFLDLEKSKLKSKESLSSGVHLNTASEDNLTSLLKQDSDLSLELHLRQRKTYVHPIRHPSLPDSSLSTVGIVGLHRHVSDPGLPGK
Source text: (§1) For recordings of K^+ channel currents, we prepared stable cell lines for TREK-1, TWIK-related acid-sensitive K^+ channel (TASK-1), strongly inwardly rectifying K^+ channel (Kir2.1), and human ether-a-go-go-related gene (HERG-1) channels and transiently expressed other channels in 293T cells using a calcium-phosphate transfection method. For the establishment of the stable lines, we used lentiviral vectors, and the preparation methods for the lentiviral vectors were described in our previous report. TR-1 cells, which stably expressed TREK-1 channel and were grown on a small cover glass (3 × 18 mm), were placed in a recording chamber with an internal volume of 200 μl. Whole-cell currents were recorded in Tyrode solution using an Axopatch 200B amplifier (Axon Instruments, Foster City, CA) at 25°C. Tyrode solution contained (in mM): NaCl 140, KCl 5.4, NaH2PO4 0.33, CaCl2 2, MgCl2 1, HEPES 5, and glucose 5.5 (pH 7.4 adjusted with NaOH). […] Perfusion (100 μl/min) was continued to maintain the water level throughout recordings. pH and osmotic pressure of solutions were measured with a pH meter (Horiba, Kyoto, Japan) and a freezing point osmometer (Knauer, Berlin, Germany), respectively. […]

[3] = biological target: KCNQ-3 (Homo sapiens, UniProt O43525); assay: whole-cell patch-clamp of KCNQ-3 currents in 293T cells; format: cell-based; details: 100 μM (data not shown)
Source text: as §1

[4] = biological target: T2, TASK-3 (Homo sapiens, UniProt Q9NPC2); assay: whole-cell patch-clamp of TASK-3 currents in 293T cells; format: cell-based
T2 construct: expressed in transfected cells; host or cells: 293T (transient, calcium-phosphate transfection)
T2 sequence (Q9NPC2 whole entry, species assumed): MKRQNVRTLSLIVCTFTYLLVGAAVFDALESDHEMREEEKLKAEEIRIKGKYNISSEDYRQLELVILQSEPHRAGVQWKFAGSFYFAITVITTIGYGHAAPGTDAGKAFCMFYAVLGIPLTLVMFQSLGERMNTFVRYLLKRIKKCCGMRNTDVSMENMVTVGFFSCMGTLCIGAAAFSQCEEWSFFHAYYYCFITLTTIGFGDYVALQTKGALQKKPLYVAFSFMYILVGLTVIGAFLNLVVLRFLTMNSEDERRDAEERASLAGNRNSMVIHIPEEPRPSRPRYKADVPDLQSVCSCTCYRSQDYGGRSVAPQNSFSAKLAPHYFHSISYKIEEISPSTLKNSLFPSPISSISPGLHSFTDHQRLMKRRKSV
Source text: as §1

- effect on KCNQ-3 channels [3]: no effect
- IC50 [4]: 227 µM
SMILES: CC(C)=CCC/C(C)=C/Cc1cc2ccc(=O)oc2cc1O [ostruthin]
- number of wheel rotations (voluntary motility) [1]: no effect at any dose
- effect on HERG-3 channels [2]: no effect
